This note sets out measurements from US20240381872A1, “SUBSTITUTED 2,3-DIHYDRO[1,3]THIAZOLO[4,5-B]PYRIDINES, SALTS THEREOF AND THEIR USE AS HERBICIDALLY ACTIVE SUBSTANCES” (BAYER AKTIENGESELLSCHAFT, priority 2021, published 2024).

Holding throughout (assay type): in vivo
Assay [1] concerns Setaria viridis (SETVI). Put plainly: Herbicidal pre-emergence action, section C (Table C8). The following applies: visual grading after ca. 3 weeks; for pest or weed control at 80 g/ha / pest or weed control at 320 g/ha: Setaria viridis, pre-emergence, 504 h, read-out: pre-emergence activity against SETVI in %. An outline of the steps: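 Compounds applied as aqueous WP or EC preparations (0.5% additive, 600 l water/ha) onto soil covering freshly sown seeds in sandy loam. Herbicidal effect is visually estimated % damage after about 3 weeks, where 100% means plants died off and 0% matches controls.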

The test system of assay [2] is Setaria viridis (SETVI). The assay is described as follows: Herbicidal post-emergence action, section E (Table E8). The settings on record: visual assessment ca. 3 weeks after spraying. From the text: (§1) Seeds of mono- and dicotyledonous weed plants and crop plants were sown, in plastic or organic planting pots, in sandy loam, covered with soil and grown in a greenhouse under controlled growth conditions. 2 to 3 weeks after sowing, the test plants were sprayed in the single-leaf stage. The compounds according to the invention, formulated in form of wettable powders (WP) or as emulsifiable concentrates (EC), were sprayed onto the green plant parts as aqueous suspension or emulsion, with the addition of 0.5% of an additive, at an application rate of 600 l of water/ha (converted). The test plants were placed in the greenhouse for ca. 3 weeks under optimum growth conditions, and then the effect of the preparations was assessed visually in comparison with untreated controls (herbicidal effect in percent (%): 100% effect=plants have died off, 0% effect=as control plants).

The test system of assay [3] is Brassica napus (BRSNW). Put plainly: Post-emergence effects on crop plants, section F (Table F5). The following applies: Brassica napus, 504 h, application rate 80 g/ha, read-out: post-emergence activity against BRSNW in %.
Text: as §1, with “plants). Tables F1 to F4 below show the effects of selected compounds of the general formula (I) according to Table 1 on various crop plants and an application rate corresponding to 320 g/ha or below obtained by the experimental procedure mentioned above.” for “plants).”

Assay [4] deals with Kochia scoparia (KCHSC). Put plainly: Herbicidal pre-emergence action, section A (Table A4). The settings on record: visual grading after ca. 3 weeks vs untreated controls; for pest or weed control at 320 g/ha / pest or weed control at 1280 g/ha: Bassia scoparia, pre-emergence, 504 h, read-out: pre-emergence activity against KCHSC in %. An outline of the steps:
(§2)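 Visual scoring at approximately 3 weeks, relative to untreated pots, gave percent effect after compounds in WP or EC form were sprayed onto covering soil of sown seeds (sandy loam) in water with 0.5% additive at 600 l/ha, then kept in greenhouse.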

For assay [5], the system named is Amaranthus retroflexus (AMARE). Put plainly: Herbicidal pre-emergence action, section A (Table A11). The following applies: for pest or weed control at 320 g/ha: Amaranthus retroflexus, 504 h, read-out: pre-emergence activity against AMARE in %. An outline of the steps:
as §2

The subject of assay [6] is Abutilon theophrasti (ABUTH). The assay is described as follows: Herbicidal pre-emergence action, section C (Table C1). The following applies: visual grading after ca. 3 weeks vs untreated controls; for pest or weed control at 320 g/ha: Abutilon theophrasti, pre-emergence, 504 h, read-out: pre-emergence activity against ABUTH in %. The text has this:
(§3) Seeds of mono- and dicotyledonous weed plants and crop plants were sown, in plastic or organic planting pots, in sandy loam and covered with soil. The compounds according to the invention, formulated in the form of wettable powders (WP) or as emulsifiable concentrates (EC), were applied to the surface of the covering soil as aqueous suspension or emulsion, with the addition of 0.5% of an additive, at an application rate of 600 l of water/ha (converted). Following treatment, the pots were placed in a greenhouse and kept under optimum growth conditions for the test plants. The visual grading of the damage to the test plants was carried out after ca. 3 weeks in comparison to untreated controls (herbicidal effect in percent (%): 100% effect=plants have died off, 0% effect=as control plants).

The test system of assay [7] is Matricaria inodora (MATIN). Put plainly: Herbicidal post-emergence action, section B (Table B6). The settings on record: visual rating about 3 weeks after treatment vs untreated controls; for post-emergence activity against MATIN in %: application rate 1280 g/ha. The protocol: (§4) Seeds of mono- and dicotyledonous weed plants were placed in plastic pots in sandy loam soil (doubly sown with in each case one species of mono- or dicotyledonous weed plants per pot), covered with soil and cultivated in a greenhouse under controlled growth conditions. 2 to 3 weeks after sowing, the test plants were treated at the one-leaf stage. The compounds of the invention, formulated in the form of wettable powders (WP) or as emulsion concentrates (EC), were applied onto the green parts of the plants as aqueous suspension or emulsion with addition of 0.5% additive at a water application rate of 600 liters per hectare (converted). After the test plants had been kept in the greenhouse under optimum growth conditions for about 3 weeks, the activity of the preparations was rated visually in comparison to untreated controls. For example, 100% activity=the plants have died, 0% activity=like control plants.

In assay [8] the test system is Alopecurus myosuroides (ALOMY). Put plainly: Herbicidal post-emergence action, section B (Table B2). The following applies: Alopecurus myosuroides, post-emergence, 504 h; application rate 1280 g/ha; rated visually about 3 weeks after treatment vs untreated controls; 100% = plants have died, 0% = like control plants; read-out: post-emergence activity against ALOMY. The protocol: as §4

Assay [9] deals with Kochia scoparia (KCHSC). The assay is described as follows: Herbicidal pre-emergence action, section C (Table C13). The settings on record: application rate 320 g/ha, visual grading after ca. 3 weeks; for pest or weed control at 320 g/ha: Bassia scoparia, pre-emergence, 504 h, read-out: pre-emergence activity against KCHSC in %.
Text: as §3

Assay [10] concerns Kochia scoparia (KCHSC). Put plainly: Herbicidal post-emergence action, section E (Table E11). The following applies: visual assessment ca. 3 weeks after spraying; for pest or weed control at 80 g/ha: Bassia scoparia, 504 h, read-out: post-emergence activity against KCHSC in %.
Text: as §1

[11] abbreviates: Setaria viridis, 504 h, application rate 320 g/ha, read-out: post-emergence activity against SETVI in %.

For the molecule `Fc1ccccc1-c1nc2c(cc1Br)SCN2` [Example I-001, 6-bromo-5-(2-fluorophenyl)-2,3-dihydro[1,3]thiazolo[4,5-b]pyridine], the pest or weed control at 80 g/ha was 100% in assay [1] (application rate 80 g/ha) and 90% in assay [2] (Setaria viridis, 504 h, application rate 80 g/ha, read-out: post-emergence activity against SETVI in %). Besides, the crop plant damage (phytotoxicity) in % at 80 g/ha in assay [3] is 20%.
`COC(=O)CCC(=O)N1CSc2cc(C)c(-c3ccccc3F)nc21` [Example I-010]: the “pre-emergence activity against KCHSC in %” value in [4] (application rate 1280 g/ha) was 100%. Also, in [5] (application rate 1280 g/ha), the “pre-emergence activity against AMARE in %” value is 100%. In assay [6] (application rate 320 g/ha), the “pre-emergence activity against ABUTH in %” value worked out at 80%. Further, the “post-emergence activity against MATIN in %” value in assay [7] turned out to be 90%.
On to `BN1CSc2cc(Br)c(-c3ccccc3C)nc21` [Example I-011], for which the “pre-emergence activity against SETVI in %” value in assay [1] (application rate 80 g/ha) stood at 100%. Besides, in assay [4] (application rate 1280 g/ha), the “pre-emergence activity against KCHSC in %” value is reported as 90%. Moreover, the “pre-emergence activity against AMARE in %” value in assay [5] (application rate 1280 g/ha) worked out at 90%.
In the case of `Cc1cc2c(nc1-c1cccc(F)c1F)NCS2` [Example I-029, 5-(2,3-difluorophenyl)-6-methyl-2,3-dihydro[1,3]thiazolo[4,5-b]pyridine], the pest or weed control at 80 g/ha in assay [1] (application rate 80 g/ha) turned out to be 100%. Further, the pest or weed control at 320 g/ha in assay [4] (application rate 320 g/ha) came to 100%; in assay [5] (application rate 320 g/ha), 90%. Besides, the pest or weed control at 1280 g/ha in assay [8] was determined as 90%.
Consider `Clc1ccccc1-c1nc2c(cc1Br)SCN2` [Example I-041, 6-bromo-5-(2-chlorophenyl)-2,3-dihydro[1,3]thiazolo[4,5-b]pyridine], for which, in assay [1] (application rate 80 g/ha), the pest or weed control at 80 g/ha stood at 90%. Further, the pest or weed control at 320 g/ha in [4] (application rate 320 g/ha) and in assay [5] (application rate 320 g/ha) was 90% in each case. For the same molecule, in assay [8], the pest or weed control at 1280 g/ha stood at 90%.
As for `Cc1cc2c(nc1-c1ccccc1Cl)NCS2` [Example I-049, 5-(2-chlorophenyl)-6-methyl-2,3-dihydro[1,3]thiazolo[4,5-b]pyridine], the pest or weed control at 80 g/ha in assay [1] (application rate 80 g/ha) is 100%. Further, the pest or weed control at 320 g/ha in [2] (setting [11]) and in assay [6] (application rate 320 g/ha) was 80% throughout.
Consider `CC(=O)N1CSc2cc(Br)c(-c3ccccc3Cl)nc21` [Example I-055, 1-[6-bromo-5-(2-chlorophenyl)[1,3]thiazolo[4,5-b]pyridin-3(2H)-yl]ethanone], for which the pest or weed control at 320 g/ha in assay [1] (application rate 320 g/ha) came out at 100%; in assay [4] (application rate 320 g/ha), 90%; in assay [5] (application rate 320 g/ha) it was 90%; in assay [6] (application rate 320 g/ha), 80%. For the same molecule, the crop plant damage (phytotoxicity) in % at 80 g/ha in [3] amounted to 10%.
With `CCOCCS(=O)(=O)N1C[S+]([O-])c2cc(C)c(-c3ccccc3F)nc21` (centres unmarked) [Example I-127], the pest or weed control at 320 g/ha in assay [9] is 90%; in [2] (setting [11]), 80%; in assay [5] (application rate 320 g/ha), 90%; in [6] (application rate 320 g/ha), 90%; in assay [7] (Tripleurospermum inodorum, post-emergence, 504 h, application rate 320 g/ha, read-out: post-emergence activity against MATIN in %), 90%. The pest or weed control at 80 g/ha in assay [1] (application rate 80 g/ha) was determined as 100%; in assay [10] (application rate 80 g/ha) it was 90%. Further, the pest or weed control at 1280 g/ha in [4] (application rate 1280 g/ha) turned out to be 100%.
`COCC1(C(=O)N2CSc3cc(C)c(-c4ccccc4F)nc32)CC(Cl)=NO1` (centres unmarked) [Example I-128]: the “pre-emergence activity against KCHSC in %” value in assay [9] and in assay [4] (application rate 320 g/ha) was 90% each time. In assay [1] (application rate 80 g/ha), the “pre-emergence activity against SETVI in %” value turned out to be 100%. Moreover, the “post-emergence activity against SETVI in %” value in assay [2] (application rate 320 g/ha) turned out to be 80%. Further, the “post-emergence activity against KCHSC in %” value in assay [10] (application rate 80 g/ha) came to 90%. For the same molecule, in assay [5] (application rate 320 g/ha), the “pre-emergence activity against AMARE in %” value amounted to 90%. For the same molecule, in [6] (application rate 80 g/ha), the “pre-emergence activity against ABUTH in %” value is reported as 80%. For the same molecule, the “post-emergence activity against MATIN in %” value in assay [7] came to 90%.
As to `Cc1ccccc1-c1nc2c(cc1C)SCN2C(=O)C1(C)CC(Cl)=NO1` (centres unmarked) [Example I-137], the “pre-emergence activity against KCHSC in %” value in [9] turned out to be 100%; in assay [4] (application rate 320 g/ha) it was 90%. The “pre-emergence activity against SETVI in %” value in [1] (application rate 80 g/ha) is recorded as 100%. Further, the “post-emergence activity against KCHSC in %” value in [10] (application rate 80 g/ha) amounted to 90%. The “pre-emergence activity against AMARE in %” value in [5] (application rate 320 g/ha) worked out at 100%. Besides, in assay [6] (application rate 320 g/ha), the “pre-emergence activity against ABUTH in %” value stood at 90%. Besides, the “post-emergence activity against MATIN in %” value in assay [7] was 90%.
For the molecule `CC1(C(=O)N2CSc3cc(Br)c(-c4ccccc4)nc32)CC(Cl)=NO1` (centres unmarked) [Example I-139], the “pre-emergence activity against KCHSC in %” value in assay [9] and in assay [4] (application rate 1280 g/ha) was 90% each time. Also, the “pre-emergence activity against SETVI in %” value in assay [1] (application rate 320 g/ha) amounted to 100%. The “post-emergence activity against KCHSC in %” value in assay [10] (application rate 320 g/ha) was found to be 90%. Also, the “pre-emergence activity against AMARE in %” value in [5] (application rate 320 g/ha) worked out at 100%. Besides, in assay [6] (application rate 320 g/ha), the “pre-emergence activity against ABUTH in %” value is listed as 90%.
Regarding `CC1(C(=O)N2CSc3cc(Br)c(-c4ccccc4Cl)nc32)CC(Cl)=NO1` (centres unmarked) [Example I-141, [6-bromo-5-(2-chlorophenyl)[1,3]thiazolo[4,5-b]pyridin-3(2H)-yl](3-chloro-5-methyl-4,5-dihydro-1,2-oxazol-5-yl)methanone], the pest or weed control at 320 g/ha came to 90% in assay [9], 100% in assay [1] (application rate 320 g/ha), 100% in assay [5] (application rate 320 g/ha) and 90% in assay [6] (application rate 320 g/ha). Besides, in assay [4] (application rate 1280 g/ha), the pest or weed control at 1280 g/ha was found to be 100%. The pest or weed control at 80 g/ha in assay [10] (application rate 80 g/ha) amounted to 80%. The crop plant damage (phytotoxicity) in % at 80 g/ha in [3] was 20%.
